Literature values, collected in patent US9999632B2, “Inhibition of pancreatic lipase” (RD Biomed Limited, priority 2009, dated 2018).

Conditions: patients treated with Orlistat; cited from earlier work

Structure (SMILES): CCCCCCCCCCC[C@@H](C[C@@H]1OC(=O)[C@H]1CCCCCC)OC(=O)[C@H](CC(C)C)NC=O [Orlistat, tetrahydrolipstatin]
- patients affected by adverse effects (steatorrhoea, bloating, oily spotting, faecal urgency, faecal incontinence): up to 40 % of patients
